From patent US20230159527A1, “COMPOUNDS AS BCL-2 INHIBITORS” (Fochon Pharmaceuticals, Ltd., priority 2020, published 2023) come the findings set out here.

A word on the IC50: it is the midpoint of a concentration-inhibition curve.

The first assay relates to Toledo cells. In words: Cell proliferation assay, Toledo cells (MTS, 72 h). It counts as cell-based. The settings on record: Homo sapiens, Toledo cells, MTS, read-out: Toledo IC50. Summed up: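 IC50 was derived from 490 nm absorbance after a 2 h MTS step. Before that, compounds at 1.5–10000 nM final (nine points) acted on Toledo cells for 72 h at 37 °C, 5% CO2. Cells were seeded at 30000/well in 10% FBS RPMI-1640 and rested 4 h before dosing.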
Regarding `CC(C)c1ccccc1[C@@H]1CCCN1C1CC2(CCN(c3ccc(C(=O)NS(=O)(=O)c4cc5c(c([N+](=O)[O-])c4)N[C@@H](C4CCOCC4)CO5)c(Oc4cnc5[nH]cc(F)c5c4)c3)CC2)C1` (single isomer, unassigned) [Example D-48, 2-((3-fluoro-1H-pyrrolo[2,3-b]pyridin-5-yl)oxy)-4-(2-((R or S)-2-(2-isopropylphenyl)pyrrolidin-1-yl)-7-azaspiro[3.5]nonan-7-yl)-N-(((S)-5-nitro-3-(tetrahydro-2H-pyran-4-yl)-3,4-dihydro-2H-benzo[b][1,4]oxazin-7-yl)sulfonyl) benzamide], the IC50 worked out at 1 nM.

With `CC(C)c1ccccc1[C@@H]1CCCN1C1CC2(CCN(c3ccc(C(=O)NS(=O)(=O)c4cc5c(c([N+](=O)[O-])c4)N[C@@H](C[C@H]4CC[C@](C)(O)CC4)CO5)c(Oc4cnc5[nH]cc(F)c5c4)c3)CC2)C1` (single isomer, unassigned) [Example D-19, 2-((3-fluoro-1H-pyrrolo[2,3-b]pyridin-5-yl)oxy)-N-(((S)-3-(((1r,4S)-4-hydroxy-4-methylcyclohexyl)methyl)-5-nitro-3,4-dihydro-2H-benzo[b][1,4]oxazin-7-yl)sulfonyl)-4-(2-((R or S)-2-(2-isopropylphenyl)pyrrolidin-1-yl)-7-azaspiro[3.5]nonan-7-yl)benzamide], the IC50 was determined as 9 nM.

With `CC(C)c1ccccc1[C@@H]1CC[C@H](CO)N1C1CC2(CCN(c3ccc(C(=O)NS(=O)(=O)c4cc5c(c([N+](=O)[O-])c4)N[C@@H]([C@H]4CC[C@](C)(O)CC4)CO5)c(Oc4cnc5[nH]cc(F)c5c4)c3)CC2)C1` [Example D-254, 2-((3-fluoro-1H-pyrrolo[2,3-b]pyridin-5-yl)oxy)-N-(((S)-3-((1r,4S)-4-hydroxy-4-methylcyclohexyl)-5-nitro-3,4-dihydro-2H-benzo[b] [1,4]oxazin-7-yl)sulfonyl)-4-(2-((2R,5S)-2-(hydroxymethyl)-5-(2-isopropylphenyl)pyrrolidin-1-yl)-7-azaspiro[3.5]nonan-7-yl)benzamide], the half-maximal inhibitory concentration (IC50) came to 1 nM.

`CC(C)c1ccccc1C1(O)CCCC1N1CC2(CCN(c3ccc(C(=O)NS(=O)(=O)c4cc5c(c([N+](=O)[O-])c4)N[C@@H]([C@H]4CC[C@](C)(O)CC4)CO5)c(Oc4cnc5[nH]cc(F)c5c4)c3)CC2)C1` (stereo partly drawn) [Example D-247, 2-((3-fluoro-1H-pyrrolo[2,3-b]pyridin-5-yl)oxy)-4-(2-(2-hydroxy-2-(2-isopropylphenyl)cyclopentyl)-2,7-diazaspiro[3.5]nonan-7-yl)-N-(((S)-3-((1r,4S)-4-hydroxy-4-methylcyclohexyl)-5-nitro-3,4-dihydro-2H-benzo[b][1,4]oxazin-7-yl)sulfonyl)benzamide]: the IC50 was determined as 1 nM.

Turning to `CC(C)c1ccccc1[C@@H]1CCCN1C1CC2(CCN(c3ccc(C(=O)NS(=O)(=O)c4cc5c(c([N+](=O)[O-])c4)N[C@@H]([C@H]4CC[C@](C)(O)CC4)CO5)c(Oc4cc5cc[nH]c5nc4OC[C@H](C)O)c3)CC2)C1` (single isomer, unassigned) [Example D-70, N-(((S)-3-((1r,4S)-4-hydroxy-4-methylcyclohexyl)-5-nitro-3,4-dihydro-2H-benzo[b][1,4]oxazin-7-yl)sulfonyl)-2-((6-((S)-2-hydroxypropoxy)-1H-pyrrolo[2,3-b]pyridin-5-yl)oxy)-4-(2-((R or S)-2-(2-isopropylphenyl)pyrrolidin-1-yl)-7-azaspiro[3.5]nonan-7-yl)benzamide], the IC50 was determined as 1 nM.

In the case of `CC(C)c1ccccc1[C@@H]1CCC[C@@H]1N1CC2(CCN(c3ccc(C(=O)NS(=O)(=O)c4cnc(NC[C@H]5CC[C@](C)(O)CC5)c([N+](=O)[O-])c4)c(Oc4cc5cc[nH]c5nc4OC4COC4)c3)CC2)C1` (single isomer, unassigned) [Example A-162, N-((6-((((1r,4r)-4-hydroxy-4-methyl-cyclohexyl)methyl)amino)-5-nitro-pyridin-3-yl)sulfonyl)-4-(2-((1S,2S or 1R,2R)-2-(2-isopropylphenyl)cyclo-pentyl)-2,7-diazaspiro[3.5]nonan-7-yl)-2-((6-(oxetan-3-yloxy)-1H-pyrrolo [2,3-b]pyridin-5-yl)oxy)benzamide], the IC50 came to 1 nM.

Regarding `CO[C@H]1CC[C@H]([C@@H]2COc3cc(S(=O)(=O)NC(=O)c4ccc(N5CCC6(CC5)CC(N5CCC[C@H]5c5ccccc5C(C)C)C6)cc4Oc4cnc5[nH]cc(F)c5c4)cc([N+](=O)[O-])c3N2)CC1` (single isomer, unassigned) [Example D-45, 2-((3-fluoro-1H-pyrrolo[2,3-b]pyridin-5-yl)oxy)-4-(2-((R or S)-2-(2-isopropylphenyl)pyrrolidin-1-yl)-7-azaspiro[3.5]nonan-7-yl)-N-(((R)-3-((1r,4S)-4-methoxycyclohexyl)-5-nitro-3,4-dihydro-2H-benzo[b][1,4]oxazin-7-yl)sulfonyl)benzamide], the IC50 is 1 nM.

Still in this assay, the particulars now being: Homo sapiens, Toledo, read-out: Toledo IC50 (nM).
Consider `CC(C)c1ccccc1[C@@H]1COCCN1C1CC2(CCN(c3ccc(C(=O)NS(=O)(=O)c4ccc(NC[C@H]5CC[C@](C)(O)CC5)c([N+](=O)[O-])n4)c(Oc4cnc5[nH]ccc5c4)c3)CC2)C1` (single isomer, unassigned) [Example C-1, 2-((1H-pyrrolo[2,3-b]pyridin-5-yl)oxy)-N-((5-((((1r,4r)-4-hydroxy-4-methylcyclohexyl)methyl)amino)-6-nitropyridin-2-yl)sulfonyl)-4-(2-((R or S)-3-(2-isopropylphenyl)morpholino)-7-azaspiro[3.5]nonan-7-yl) benzamide], for which the 50% inhibitory concentration (IC50) is 1 nM.

The subject of the next assay is DoHH2 cells. The assay is described as follows: Cell proliferation assay, DoHH2 cells (MTS, 120 h). Format: cell-based. The settings on record: Homo sapiens, DOHH-2. On the procedure:
MTS testing kit was purchased from Promega (Madison, Wis., USA). The RPMI-1640, Fetal bovine serum and Penicillin-Streptomycin were purchased from BI (Biological Industries, Beit Haemek, Israel). Dimethyl sulfoxide (DMSO) was purchased from Sigma (St. Louis, Mo., USA). DoHH2 (DSMZ catalog #: ACC47) cells were cultured in RPMI-1640 supplemented with Penicillin-Streptomycin and 10% FBS.
To investigate whether a compound is able to inhibit the activity of BCL-2 in cells, a mechanism-based assay using DoHH2 lines was developed. In this assay, the inhibition of BCL-2 was reflected by the inhibition of cell proliferation of DoHH2 cells. Cells were plated into 96-well plates at the optimized cell density of 5000 cells/well. Plates were incubated at 37° C., with 5% CO2 for 4h. Compounds were serially diluted and added to the plates with the final concentrations of 10000, 3333.3, 1111.1, 370.4, 123.5, 41.2, 13.7, 4.6 and 1.5 nM. Plates were incubated at 37° C., with 5% CO2 for 120 h. 20 μl MTS was added into each well and the plates were incubated at 37° C., with 5% CO2 for exactly 2 h. The absorbance was measured by a microplate reader at 490 nm. IC50 was calculated using GraphPad Prism 5.0 software.
Regarding `CC1(O)CCC(CNc2ncc(S(=O)(=O)NC(=O)c3ccc(N4CCC5(CC4)CC(N4CCC[C@H]4c4ccccc4C4CC4)C5)cc3Oc3cnc4[nH]ccc4c3)cc2[N+](=O)[O-])CC1` (stereo partly drawn) [Example A-1b, (S)-2-((1H-pyrrolo[2,3-b]pyridin-5-yl)oxy)-4-(2-(2-(2-cyclopropylphenyl)pyrrolidin-1-yl)-7-azaspiro[3.5]nonan-7-yl)-N-((6-(((4-hydroxy-4-methylcyclohexyl)methyl)amino)-5-nitropyridin-3-yl)sulfonyl)benzamide], the IC50 is at most 1 nM.

As to `CC(C)c1ccccc1C1COCCN1C1CC2(CCN(c3ccc(C(=O)NS(=O)(=O)c4cc5c(c([N+](=O)[O-])c4)N[C@@H](CN4CCC(NS(C)(=O)=O)CC4)CO5)c(Oc4cnc5[nH]ccc5c4)c3)CC2)C1` (single isomer, unassigned) [Example D-23, 2-((1H-pyrrolo[2,3-b]pyridin-5-yl)oxy)-4-(2-((R or S)-3-(2-isopropylphenyl)morpholino)-7-azaspiro[3.5]nonan-7-yl)-N-(((S)-3-((4-(methylsulfonamido)piperidin-1-yl)methyl)-5-nitro-3,4-dihydro-2H-benzo[b][1,4]oxazin-7-yl)sulfonyl)benzamide], the IC50 was at most 1 nM.

`O=C(NS(=O)(=O)c1cc2c(c([N+](=O)[O-])c1)N[C@@H](CN1CCOCC1)CCO2)c1ccc(N2CCC3(CC2)CC(N2CCC[C@H]2c2ccccc2C2CC2)C3)cc1Oc1cnc2[nH]ccc2c1` (single isomer, unassigned) [Example D-24, 2-((1H-pyrrolo[2,3-b]pyridin-5-yl)oxy)-4-(2-((R or S)-2-(2-cyclopropylphenyl)pyrrolidin-1-yl)-7-azaspiro[3.5]nonan-7-yl)-N-(((R)-4-(morpholinomethyl)-6-nitro-2,3,4,5-tetrahydrobenzo [b][1,4]oxazepin-8-yl)sulfonyl) benzamide] had a concentration for half-maximal inhibition (IC50) of at most 1 nM.

In turn, `CC(C)c1ccccc1C1CCCN1C1CC2(CCN(c3ccc(C(=O)NS(=O)(=O)c4cc([N+](=O)[O-])c5c(n4)OC[C@H](CC4CCOCC4)N5)c(Oc4cnc5[nH]ccc5c4)c3)CC2)C1` (single isomer, unassigned) [Example B-40, 2-((1H-pyrrolo[2,3-b]pyridin-5-yl)oxy)-4-(2-((R or S)-2-(2-isopropylphenyl)pyrrolidin-1-yl)-7-azaspiro[3.5]nonan-7-yl)-N-(((S)-8-nitro-2-((tetrahydro-2H-pyran-4-yl)methyl)-2,3-dihydro-1H-pyrido[2,3-b][1,4]oxazin-6-yl)sulfonyl)benzamide] registered an IC50 of at most 1 nM.

`CC(C)c1ccccc1C1COCCN1C1CC2(CCN(c3ccc(C(=O)NS(=O)(=O)c4cc([N+](=O)[O-])c5c(n4)OC[C@H](CC4CCOCC4)N5)c(Oc4cnc5[nH]ccc5c4)c3)CC2)C1` (single isomer, unassigned) [Example B-51, 2-((1H-pyrrolo[2,3-b]pyridin-5-yl)oxy)-4-(2-((R or S)-3-(2-isopropylphenyl)morpholino)-7-azaspiro[3.5]nonan-7-yl)-N-(((S)-8-nitro-2-((tetrahydro-2H-pyran-4-yl)methyl)-2,3-dihydro-1H-pyrido[2,3-b][1,4]oxazin-6-yl)sulfonyl)benzamide]: the IC50 is at most 1 nM.
